Assays:
VIOTR = experiment: Post-emergence herbicidal action against VIOTR; assay type: in vivo, Viola tricolor; conditions: application rate 80 g/ha, rated visually about 3 weeks after treatment
Protocol: (§1) [table] 2. Post-emergence herbicidal action against harmful plants and crop plant compatibility Seeds of monocotyledonous and dicotyledonous weeds and crop plants are placed in sandy loam in plastic or wood-fibre pots, covered with soil and cultivated in a greenhouse under controlled growth conditions. 2 to 3 weeks after sowing, the test plants are treated at the one-leaf stage. The compounds of the invention, formulated in the form of wettable powders (WP) or as emulsion concentrates (EC), are then sprayed onto the green parts of the plants as aqueous suspension or emulsion with addition of 0.5% additive at a water application rate of 600 l/ha (converted). After the test plants have been kept in the greenhouse under optimum growth conditions for about 3 weeks, the activity of the preparations is rated visually in comparison to untreated controls. For example, 100% activity=the plants have died, 0% activity=like control plants.

AMARE = experiment: Post-emergence herbicidal action against AMARE; assay type: in vivo, Amaranthus retroflexus; conditions: application rate 80 g/ha, rated visually about 3 weeks after treatment
Protocol: as §1

LOLRI = experiment: Post-emergence herbicidal action against LOLRI; assay type: in vivo, Lolium rigidum; conditions: application rate 80 g/ha, rated visually after about 3 weeks
Protocol: as §1

ECHCG = experiment: Post-emergence herbicidal action against ECHCG; assay type: in vivo, Echinochloa crus-galli; conditions: application rate 80 g/ha, rated visually after about 3 weeks
Protocol: as §1

ALOMY = experiment: Post-emergence herbicidal action against ALOMY; assay type: in vivo, Alopecurus myosuroides; conditions: application rate 80 g/ha, rated visually after about 3 weeks
Protocol: as §1

VERPE = experiment: Post-emergence herbicidal action against VERPE; assay type: in vivo, Veronica persica; conditions: application rate 80 g/ha
Protocol: as §1

PHBPU = experiment: Post-emergence herbicidal action against PHBPU; assay type: in vivo, Pharbitis purpurea; conditions: application rate 80 g/ha, rated visually about 3 weeks after treatment
Protocol: as §1

STEME = experiment: Post-emergence herbicidal action against STEME; assay type: in vivo, Stellaria media; conditions: application rate 80 g/ha, rated visually about 3 weeks after treatment
Protocol: as §1

SETVI = experiment: Post-emergence herbicidal action against SETVI; assay type: in vivo, Setaria viridis; conditions: application rate 80 g/ha, rated visually after about 3 weeks
Protocol: as §1

AVEFA = experiment: Post-emergence herbicidal action against AVEFA; assay type: in vivo, Avena fatua; conditions: application rate 80 g/ha, rated visually after about 3 weeks
Protocol: as §1

ABUTH = experiment: Post-emergence herbicidal action against ABUTH; assay type: in vivo, Abutilon theophrasti; conditions: application rate 80 g/ha, rated visually about 3 weeks after treatment
Protocol: as §1

POLCO = experiment: Post-emergence herbicidal action against POLCO; assay type: in vivo, Polygonum convolvulus; conditions: application rate 80 g/ha, rated visually about 3 weeks after treatment
Protocol: as §1

HORMU = experiment: Post-emergence herbicidal action against HORMU; assay type: in vivo, Hordeum murinum; conditions: application rate 80 g/ha
Protocol: as §1

Row | SMILES | Herbicidal action against [%] VIOTR (VIOTR) [%] | Herbicidal action against [%] AMARE (AMARE) [%] | Herbicidal action against [%] LOLRI (LOLRI) [%] | Herbicidal action against [%] ECHCG (ECHCG) [%] | Herbicidal action against [%] ALOMY (ALOMY) [%] | Herbicidal action against [%] VERPE (VERPE) [%] | Herbicidal action against [%] PHBPU (PHBPU) [%] | Herbicidal action against [%] STEME (STEME) [%] | Herbicidal action against [%] SETVI (SETVI) [%] | Herbicidal action against [%] AVEFA (AVEFA) [%] | Herbicidal action against [%] ABUTH (ABUTH) [%] | Herbicidal action against [%] POLCO (POLCO) [%] | Herbicidal action against [%] HORMU (HORMU) [%]
1 | CC(C)(NC(=O)C1C=CC(NC(=O)C2(C(F)(F)F)CC(c3cc(F)cc(F)c3)=NO2)C1)C(F)(F)F (centres unmarked) [II-38] | 80 | 90 | – | – | – | – | – | – | – | – | – | – | –
2 | C=CC1(C(=O)NC2C=CC(C(=O)NC(C(=O)OC)C(C)C)C2)CC(c2cc(F)cc(F)c2)=NO1 (single isomer, unassigned) [II-26] | – | 90 | 100 | 80 | 100 | 80 | 80 | 90 | 80 | 90 | 80 | 80 | 100
3 | CC1(C(=O)N[C@H]2C=C[C@@H](C(=O)OCC(F)(F)F)C2)CC(c2cc(F)cc(F)c2)=NO1 (some centres unmarked) [Example I-010] | – | 90 | 90 | 90 | 90 | 90 | 90 | 80 | 90 | 90 | 80 | 90 | 90
4 | C=CC1(C(=O)N[C@H]2CC=C(C(=O)OC(C)C)C2)CC(c2cc(F)cc(F)c2)=NO1 (some centres unmarked) [III-13] | – | 90 | 100 | 90 | 90 | 80 | 90 | 90 | 80 | 90 | 80 | 80 | 90
5 | CCOC(=O)C1C=CC(NC(=O)C2(C)CC(c3cc(F)cc(C#N)c3)=NO2)C1 (mixture of isomers) [Example I-073] | – | 80 | 100 | 100 | 90 | 80 | 80 | 90 | 80 | 100 | 80 | 90 | 90
6 | C=CC1(C(=O)NC2C=CC(C(=O)N3CCCO3)C2)CC(c2cc(F)cc(F)c2)=NO1 (centres unmarked) [II-28] | – | 80 | 90 | 90 | 100 | 90 | 90 | 90 | 80 | 80 | 90 | 80 | 80
7 | COCCOC(=O)C1C=CC(NC(=O)C2(C(F)(F)F)CC(c3cccc(C#N)c3)=NO2)C1 (mixture of isomers) [Example I-086] | – | 90 | 90 | 90 | 90 | 90 | 80 | 80 | 90 | 90 | 90 | 80 | 100
